What was measured:
[1] = Crystal; DTA
[2] = xn = mol fraction of the nth substance listed; settings: 101 kPa, Liquid, Vibrating tube method
[3] = refractive index (Na D-line) (dimensionless); xn = mol fraction of the nth substance listed; settings: 101 kPa, Liquid, Standard Abbe refractometry

C[Si](O[Si](C)(c1ccccc1)c1ccccc1)(c1ccccc1)c1ccccc1 [1,3-dimethyl-1,1,3,3-tetraphenyldisiloxane]
Settings	Normal melting temperature [°C]
[1]	49.70

C[Si](O[Si](C)(c1ccccc1)c1ccccc1)(c1ccccc1)c1ccccc1 [1,3-dimethyl-1,1,3,3-tetraphenyldisiloxane] + CC(C)O
303.15 K
Settings	mass density, x1 = 0.00125 [kg/m3]	mass density, x1 = 0.00359 [kg/m3]	mass density, x1 = 0.00759 [kg/m3]	mass density, x1 = 0.01218 [kg/m3]	mass density, x1 = 0.01284 [kg/m3]	refractive index, x1 = 0.00125	refractive index, x1 = 0.00359	refractive index, x1 = 0.00759	refractive index, x1 = 0.01218	refractive index, x1 = 0.01284
[2]	778.65	783.03	788.42	794.61	795.14	–	–	–	–	–
[3]	–	–	–	–	–	1.37416	1.37721	1.38094	1.38528	1.38568

C[Si](O[Si](C)(c1ccccc1)c1ccccc1)(c1ccccc1)c1ccccc1 [1,3-dimethyl-1,1,3,3-tetraphenyldisiloxane] + CCCO
303.15 K
Settings	mass density, x1 = 0.00161 [kg/m3]	mass density, x1 = 0.00428 [kg/m3]	mass density, x1 = 0.00956 [kg/m3]	mass density, x1 = 0.01076 [kg/m3]	mass density, x1 = 0.01339 [kg/m3]	refractive index, x1 = 0.00161	refractive index, x1 = 0.00428	refractive index, x1 = 0.00956	refractive index, x1 = 0.01076	refractive index, x1 = 0.01339
[2]	797.94	801.12	808.9	810.51	813.97	–	–	–	–	–
[3]	–	–	–	–	–	1.38273	1.38545	1.39061	1.39176	1.39425

C[Si](O[Si](C)(c1ccccc1)c1ccccc1)(c1ccccc1)c1ccccc1 [1,3-dimethyl-1,1,3,3-tetraphenyldisiloxane] + CCO
298.15 K
Settings	mass density, [2] [kg/m3]	refractive index, [3]
x1 = 0.0009	787.37	1.36085
x1 = 0.00225	789.76	1.36263
x1 = 0.00446	794.07	1.36586
x1 = 0.00667	798.07	1.36893
x1 = 0.00825	801.34	1.37139
x1 = 0.01059	805.13	1.37427
x1 = 0.01252	808.66	1.37693

C[Si](O[Si](C)(c1ccccc1)c1ccccc1)(c1ccccc1)c1ccccc1 [1,3-dimethyl-1,1,3,3-tetraphenyldisiloxane] + CO
298.15 K
Settings	mass density, x1 = 0.00036 [kg/m3]	mass density, x1 = 0.0009 [kg/m3]	mass density, x1 = 0.0018 [kg/m3]	mass density, x1 = 0.00241 [kg/m3]	mass density, x1 = 0.00364 [kg/m3]	refractive index, x1 = 0.00036	refractive index, x1 = 0.0009	refractive index, x1 = 0.0018	refractive index, x1 = 0.00241	refractive index, x1 = 0.00364
[2]	787.68	789.17	791.71	793.31	796.57	–	–	–	–	–
[3]	–	–	–	–	–	1.3274	1.3287	1.33084	1.33228	1.33509

C[Si](O[Si](C)(c1ccccc1)c1ccccc1)(c1ccccc1)c1ccccc1 [1,3-dimethyl-1,1,3,3-tetraphenyldisiloxane] + C[Si]1(C)O[Si](C)(C)O[Si](C)(C)O[Si](C)(C)O1
303.15 K
Settings	mass density, x1 = 0.00724 [kg/m3]	mass density, x1 = 0.01526 [kg/m3]	mass density, x1 = 0.02752 [kg/m3]	mass density, x1 = 0.04184 [kg/m3]	mass density, x1 = 0.05492 [kg/m3]	refractive index, x1 = 0.00724	refractive index, x1 = 0.01526	refractive index, x1 = 0.02752	refractive index, x1 = 0.04184	refractive index, x1 = 0.05492
[2]	946.03	947.52	949.77	952.36	954.7	–	–	–	–	–
[3]	–	–	–	–	–	1.39358	1.39553	1.3985	1.40193	1.40505

From the NIST ThermoML archive (doi:10.1016/j.tca.2012.04.033)
